One may read the IC50 as the midpoint of a concentration-inhibition curve.

The values that follow come from ChEMBL document CHEMBL1130438, “The Gif system as a tool in medicinal chemistry: The oxidation of Sch 57726 under GoAggIII conditions” (Bioorg Med Chem Lett, 1997).

The target in one experiment is Phosphodiesterase 1 (Bos taurus, UniProt Q01061+P14100). Put plainly: Inhibition of bovine aorta phosphodiesterase 1. The class given is protein assay.
Experiment [1] concerns the target cGMP-dependent 3',5'-cyclic phosphodiesterase (Homo sapiens, UniProt O00408). In words: Inhibition of phosphodiesterase 2.
The target in another experiment is Phosphodiesterase 3B (Bos taurus, UniProt E1BN64). In words: Inhibition of bovine heart phosphodiesterase 3.
Another experiment deals with Phosphodiesterase 4 (Homo sapiens, UniProt P27815+Q08499+Q07343+Q08493). In words: Inhibition of phosphodiesterase 4. The class given is protein assay.
Experiment [2] addresses cGMP-specific 3',5'-cyclic phosphodiesterase (Bos taurus, UniProt Q28156). Put plainly: Inhibition of bovine lung phosphodiesterase 5.

cGMP-dependent 3',5'-cyclic phosphodiesterase, sequence (O00408 whole entry): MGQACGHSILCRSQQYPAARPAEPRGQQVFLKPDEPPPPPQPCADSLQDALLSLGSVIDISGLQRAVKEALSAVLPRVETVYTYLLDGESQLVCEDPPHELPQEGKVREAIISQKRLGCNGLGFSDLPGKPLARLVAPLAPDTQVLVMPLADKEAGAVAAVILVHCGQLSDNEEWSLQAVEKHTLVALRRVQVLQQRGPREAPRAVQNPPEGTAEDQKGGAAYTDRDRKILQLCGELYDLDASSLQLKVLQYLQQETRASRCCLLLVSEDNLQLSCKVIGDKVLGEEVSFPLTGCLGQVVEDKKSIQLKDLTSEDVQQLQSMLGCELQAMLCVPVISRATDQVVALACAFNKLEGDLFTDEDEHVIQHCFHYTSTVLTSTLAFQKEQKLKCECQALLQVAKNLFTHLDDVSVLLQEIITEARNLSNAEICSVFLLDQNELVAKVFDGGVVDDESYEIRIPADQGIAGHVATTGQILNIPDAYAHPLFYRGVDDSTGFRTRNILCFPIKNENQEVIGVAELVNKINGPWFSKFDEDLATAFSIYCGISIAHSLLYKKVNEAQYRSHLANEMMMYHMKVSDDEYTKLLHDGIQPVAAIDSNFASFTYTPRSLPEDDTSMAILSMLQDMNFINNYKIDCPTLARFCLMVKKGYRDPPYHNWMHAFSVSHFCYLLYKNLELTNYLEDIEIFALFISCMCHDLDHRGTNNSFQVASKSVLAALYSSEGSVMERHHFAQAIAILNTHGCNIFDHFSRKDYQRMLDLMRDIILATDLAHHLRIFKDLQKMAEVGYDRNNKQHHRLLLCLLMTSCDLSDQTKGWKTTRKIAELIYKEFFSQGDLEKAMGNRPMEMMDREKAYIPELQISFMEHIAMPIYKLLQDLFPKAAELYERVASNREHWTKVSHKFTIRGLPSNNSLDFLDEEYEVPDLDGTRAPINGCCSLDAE
Phosphodiesterase 3B, sequence (E1BN64 whole entry): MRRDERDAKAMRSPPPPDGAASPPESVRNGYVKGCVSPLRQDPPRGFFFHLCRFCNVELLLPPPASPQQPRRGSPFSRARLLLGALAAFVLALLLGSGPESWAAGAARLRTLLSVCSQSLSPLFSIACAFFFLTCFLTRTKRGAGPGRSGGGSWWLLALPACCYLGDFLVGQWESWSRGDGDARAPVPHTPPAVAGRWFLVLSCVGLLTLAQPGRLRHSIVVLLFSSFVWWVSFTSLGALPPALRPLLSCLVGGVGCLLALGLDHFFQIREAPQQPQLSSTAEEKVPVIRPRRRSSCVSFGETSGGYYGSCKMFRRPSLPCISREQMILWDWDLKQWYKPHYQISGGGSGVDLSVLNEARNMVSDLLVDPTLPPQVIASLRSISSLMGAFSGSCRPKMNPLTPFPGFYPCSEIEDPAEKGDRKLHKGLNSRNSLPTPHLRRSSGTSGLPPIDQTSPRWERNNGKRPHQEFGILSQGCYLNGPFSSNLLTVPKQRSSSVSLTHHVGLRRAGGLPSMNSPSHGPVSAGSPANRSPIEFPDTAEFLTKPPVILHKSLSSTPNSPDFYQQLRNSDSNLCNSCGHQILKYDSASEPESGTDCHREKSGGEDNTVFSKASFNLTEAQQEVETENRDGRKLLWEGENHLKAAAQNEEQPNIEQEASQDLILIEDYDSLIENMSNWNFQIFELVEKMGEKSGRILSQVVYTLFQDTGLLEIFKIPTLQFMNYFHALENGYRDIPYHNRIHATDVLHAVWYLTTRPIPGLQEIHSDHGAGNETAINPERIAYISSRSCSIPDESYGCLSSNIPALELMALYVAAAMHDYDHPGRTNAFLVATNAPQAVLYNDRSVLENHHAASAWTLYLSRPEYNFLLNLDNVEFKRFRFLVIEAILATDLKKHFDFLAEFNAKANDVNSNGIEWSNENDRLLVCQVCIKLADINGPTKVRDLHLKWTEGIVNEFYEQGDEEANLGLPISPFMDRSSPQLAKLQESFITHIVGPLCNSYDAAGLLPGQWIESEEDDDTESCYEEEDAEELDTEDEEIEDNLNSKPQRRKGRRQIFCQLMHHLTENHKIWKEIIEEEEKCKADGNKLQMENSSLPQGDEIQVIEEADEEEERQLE

Take `CN1C(=O)c2c(nc(-c3ccc(C4CCCCC4)cc3)n2Cc2ccccc2)N2CC3(CCCC3)N=C12`: the IC50 on Phosphodiesterase 1 is 110 nM; in experiment [1], 17000 nM; against Phosphodiesterase 3B it was greater than 100000 nM; against Phosphodiesterase 4, 2200 nM; in experiment [2], 190 nM.
